Test results published in patent US20060233711A1, “Method for treating conditions associated with fear memory” (priority 2005, published 2006).
pIC50: −log10 of the molar value.

How the values were obtained:
[1] = system: KARs; conditions: SYM2206 at 100 μM; cited from earlier work
[2] = system: EPSCs in LA neurons (thalamic input); test: Whole-cell patch-clamp recording of EPSCs in lateral amygdala neurons in slices; type: cell-based, mice
Experimental: Transverse slices ([…]) of the amygdala were transferred to a room temperature submerged recovery chamber with oxygenated (95% O2 and 5% CO2) ACSF solution as described above. After a one hour recovery, slices were placed in a recording chamber on the stage of an Axioskop 2FS microscope (Zeiss) equipped with infrared DIC optics for visualized whole-cell patch clamp recordings. Excitatory postsynaptic currents were recorded from cells in the lateral amygdala with an Axon 200B amplifier (Axon Instruments, Calif., USA). Electrical stimulations (200 μsec duration) were delivered by a bipolar tungsten stimulating electrode placed in the internal capsule (thalamic inputs) (Tsvetkov et al., 2004). EPSCs were induced by repetitive stimulations at 0.02-0.05 Hz and neurons were voltage clamped at −70 mV. In all experiments, the stimulus intensity was adjusted to produce synaptic responses with an amplitude of 70-100 pA. […] Access resistance was 15-30 M ? and monitored throughout the experiment. […]

[3] = target: AMPA receptors; conditions: cited from earlier work
[4] = system: GluR5; conditions: treated animals; cited from earlier work

Structure (SMILES): CCCNC(=O)N1N=C(c2ccc(N)cc2)c2cc3c(cc2C1C)OCO3 (racemic) [SYM2206, (±)-4-(4-aminophenyl)-1,2-dihydro-1-methyl-2-propylcarbamoyl-6,7-methylenedioxyphthalazine]
- inhibition of KARs [1]: 20-30%
- effect on EPSCs ([2]; bath application of AP5 (50 μM) plus SYM2206 (100 μM), n=17, LA neurons): reduced, but did not completely block
- pIC50 ([3]; AMPA receptors, read-out: half-maximal inhibitory concentration): 5.70 to 6.00
- inhibition of AMPA receptors ([3]; SYM2206 at 100 μM): maximal inhibition

Structure (SMILES): N#Cc1cc2[nH]c(=O)c(=O)[nH]c2cc1[N+](=O)[O-] [CNQX]
- effect on residual (SYM2206-insensitive) current ([2]; CNQX 20 μM, after AP5 plus SYM2206, n=5): completely blocked

Structure (SMILES): O=C(O)c1ccc(C[C@H]2CC[C@H]3CN[C@H](C(=O)O)C[C@H]3C2)cc1 [LY382884]
- behavioral responses to formalin and Complete Freund's adjuvant (CFA) [4]: reduced
